Measurements reported in US12643866B2, “Small molecule compound serving as JAK kinase inhibitor and use thereof” (TECHNODERMA MEDICINES, INC., priority 2020, dated 2026).

Assays:
Type in all cases: biochemical
JAK3 = molecular target: T1, JAK3 (Homo sapiens, UniProt P52333); experiment: Detection of enzyme activity inhibition of JAK kinases (ULight-JAK substrate, Eu-labeled antibody): JAK3; details: ATP 10 μM, substrate 50 nM, 1 hour reaction at room temperature; read-out: JAK3 half-maximum inhibitory concentration (IC50)
T1 sequence (P52333 1-1124): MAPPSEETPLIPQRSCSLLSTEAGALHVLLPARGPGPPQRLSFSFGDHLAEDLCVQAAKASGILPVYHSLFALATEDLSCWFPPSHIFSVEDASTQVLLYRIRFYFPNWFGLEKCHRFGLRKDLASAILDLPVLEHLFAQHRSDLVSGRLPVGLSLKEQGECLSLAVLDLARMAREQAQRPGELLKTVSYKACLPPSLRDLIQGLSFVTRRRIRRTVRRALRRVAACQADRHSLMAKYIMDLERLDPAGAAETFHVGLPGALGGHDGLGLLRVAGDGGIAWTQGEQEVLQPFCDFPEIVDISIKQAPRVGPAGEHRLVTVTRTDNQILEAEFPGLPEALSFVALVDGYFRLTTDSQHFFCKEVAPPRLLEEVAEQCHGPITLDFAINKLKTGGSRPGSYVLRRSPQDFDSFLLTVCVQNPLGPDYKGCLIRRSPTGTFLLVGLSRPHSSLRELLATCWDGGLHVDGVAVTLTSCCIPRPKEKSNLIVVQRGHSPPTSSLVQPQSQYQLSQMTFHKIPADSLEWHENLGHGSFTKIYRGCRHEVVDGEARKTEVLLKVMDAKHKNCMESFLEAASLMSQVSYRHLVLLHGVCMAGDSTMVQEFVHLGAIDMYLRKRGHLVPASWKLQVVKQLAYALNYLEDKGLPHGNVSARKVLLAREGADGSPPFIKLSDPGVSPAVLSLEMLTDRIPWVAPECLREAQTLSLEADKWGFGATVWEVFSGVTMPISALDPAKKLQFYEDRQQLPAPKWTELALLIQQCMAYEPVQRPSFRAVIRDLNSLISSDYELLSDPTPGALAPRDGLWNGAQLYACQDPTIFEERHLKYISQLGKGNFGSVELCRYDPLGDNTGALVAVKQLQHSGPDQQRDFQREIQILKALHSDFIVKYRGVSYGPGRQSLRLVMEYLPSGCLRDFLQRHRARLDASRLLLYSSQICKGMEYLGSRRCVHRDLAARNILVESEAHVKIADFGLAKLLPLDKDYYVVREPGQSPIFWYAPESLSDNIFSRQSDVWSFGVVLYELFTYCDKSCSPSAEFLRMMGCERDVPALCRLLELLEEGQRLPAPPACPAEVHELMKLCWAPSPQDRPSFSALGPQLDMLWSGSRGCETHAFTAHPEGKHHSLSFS
Experimental: (§1) Test Example 1: Detection of Enzyme Activity Inhibition of Small Molecule Inhibitors of JAK Kinases
(§2) Kinase reaction buffer: The kinase reaction buffer was prepared with the following components: 50 mM HEPES, pH 7.5, 1 mM EGTA, 10 mM MgCl2, 2 mM DTT, and 0.01% Tween20. 1× test buffer: A test buffer was prepared, and the 10× test buffer was diluted with deionized water (deionized water: test buffer=9:1) to obtain the 1× test buffer. 4× kinase solution: JAK kinase was diluted with a kinase reaction buffer to a final concentration of 4× (JAK1:80 nM, JAK2/JAK3/Tyk2:4 nM). 4× substrate solution: ULight™-JAK (Tyr1023) substrate was diluted with the kinase reaction buffer to 200 nM (final concentration: 50 nM). 4×ATP solution: ATP was diluted with the kinase reaction buffer to a final concentration of 4× (JAK1:160 μM, JAK2/JAK3/Tyk2: 40 μM). 4× test compound solution: The compounds to be tested were dissolved in DMSO to prepare 10 mM stock solutions, which were diluted to have the desired concentrations through 3-fold gradient dilution, 10 concentrations were set for each compound, and final concentrations of the test compounds ranged from 10 μM to 0.5 nM. 4× enzyme reaction termination solution: EDTA was dissolved in a 1× test buffer to 40 mM (final concentration of EDTA: 10 mM). 4× test antibody solution: Eu-labeled test antibodies (anti-phosphotyrosine (PT66)) were diluted with 1× test buffer to 8 nM (final concentration of the antibodies: 2 nM).
(§3) 2.5 μL of the 4× kinase solution and 2.5 μL of each of the 4× test compound solutions having different concentrations were added into a 384-well microwell plate sequentially, with 2 duplicate wells set for each concentration, and an enzyme solution blank control group and a negative control group (DMSO group) were also provided. The 384-well plate was oscillated to mix the enzyme and the compound uniformly, centrifuged at 1000 rpm for 1 minute, and incubated at room temperature for 60 minutes. 2.5 μL of the 4× substrate solution was added into the 384-well plate, and centrifuged at 1000 rpm for 1 minute. 2.5 μL of the 4×ATP solution was added into the 384-well plate, and centrifuged at 1000 rpm for 1 minute to start the enzyme reaction. JAK1 reacted at room temperature for 2 hours, and JAK2/JAK3/Tyk2 reacted at room temperature for 1 hour. The final concentration of each component in the JAK1 reaction was: JAK1:20 nM; substrate: 50 nM; and ATP: 40 μM. The final concentrations of the test compounds ranged from 10 μM to 0.5 nM. The final concentration of each component in the JAK2/JAK3/Tyk2 reaction was: JAK2: 1 nM; substrate: 50 nM; and ATP: 10 μM. The final concentrations of the test compounds ranged from 10 μM to 0.5 nM. After the enzyme reaction ended, 5 μL of the 4× enzyme reaction termination solution was added into each well of the 384-well plate, centrifuged at 1000 rpm for 1 minute, and incubated at room temperature for 5 minutes. 5 μL of the 4× test antibody solution (final concentration of the test antibodies was 2 nM) was added into each well of the 384-well plate, centrifuged at 1000 rpm for 1 minute, and incubated at room temperature for 1 hour. After incubation of the antibodies, a signal value of each well was measured with Envision plate reader.
(§4) Assuming that an inhibition rate of the enzyme solution blank control group was 100% and an inhibition rate of the negative control group (DMSO group) was 0%, an inhibition rate corresponding to each concentration was calculated. Nonlinear regression analysis was performed on the concentration logarithm values and corresponding percentage inhibition rates of the test compounds in GraphPad Prism software to obtain the half-maximum inhibitory concentrations (IC50) of the test compounds.

JAK2 = JAK2 (Homo sapiens, UniProt O60674); experiment: Detection of enzyme activity inhibition of JAK kinases (ULight-JAK substrate, Eu-labeled antibody): JAK2; details: JAK2 1 nM, ATP 10 μM, substrate 50 nM, 1 hour reaction at room temperature; read-out: JAK2 half-maximum inhibitory concentration (IC50)
JAK2, sequence (O60674 whole entry): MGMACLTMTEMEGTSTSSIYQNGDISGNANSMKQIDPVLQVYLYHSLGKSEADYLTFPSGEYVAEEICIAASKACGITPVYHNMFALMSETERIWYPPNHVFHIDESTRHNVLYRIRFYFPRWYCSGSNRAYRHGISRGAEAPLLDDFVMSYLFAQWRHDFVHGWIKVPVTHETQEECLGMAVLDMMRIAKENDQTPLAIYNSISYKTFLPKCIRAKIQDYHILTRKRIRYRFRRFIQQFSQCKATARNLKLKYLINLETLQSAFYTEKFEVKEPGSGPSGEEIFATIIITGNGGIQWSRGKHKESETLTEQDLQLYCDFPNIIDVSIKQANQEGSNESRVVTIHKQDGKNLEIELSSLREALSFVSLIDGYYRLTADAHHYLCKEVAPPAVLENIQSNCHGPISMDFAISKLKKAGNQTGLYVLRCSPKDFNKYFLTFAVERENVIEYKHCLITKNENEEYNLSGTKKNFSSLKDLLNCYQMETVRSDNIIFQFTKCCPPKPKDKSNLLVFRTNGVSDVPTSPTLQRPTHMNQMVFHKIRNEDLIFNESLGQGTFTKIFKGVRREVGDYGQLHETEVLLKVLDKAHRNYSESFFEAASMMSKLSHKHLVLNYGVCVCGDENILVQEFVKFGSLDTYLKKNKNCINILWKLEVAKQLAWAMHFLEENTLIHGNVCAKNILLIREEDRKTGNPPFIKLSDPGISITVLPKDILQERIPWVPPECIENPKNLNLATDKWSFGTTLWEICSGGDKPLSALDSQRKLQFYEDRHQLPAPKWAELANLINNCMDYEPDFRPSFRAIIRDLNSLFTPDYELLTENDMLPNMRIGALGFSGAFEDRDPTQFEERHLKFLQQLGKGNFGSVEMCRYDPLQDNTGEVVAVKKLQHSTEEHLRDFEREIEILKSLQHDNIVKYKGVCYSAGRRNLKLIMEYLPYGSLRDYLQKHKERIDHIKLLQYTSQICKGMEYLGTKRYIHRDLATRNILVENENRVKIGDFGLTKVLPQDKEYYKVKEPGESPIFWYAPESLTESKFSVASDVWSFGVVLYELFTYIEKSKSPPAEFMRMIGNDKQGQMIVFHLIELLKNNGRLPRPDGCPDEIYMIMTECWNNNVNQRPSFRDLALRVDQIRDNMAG
Experimental: as §1, §2, §3, §4

JAK1 = JAK1 (Homo sapiens, UniProt P23458); experiment: Detection of enzyme activity inhibition of JAK kinases (ULight-JAK substrate, Eu-labeled antibody): JAK1; details: JAK1 20 nM, ATP 40 μM, substrate 50 nM, 2 hours reaction at room temperature; read-out: JAK1 half-maximum inhibitory concentration (IC50)
JAK1, sequence (P23458 whole entry): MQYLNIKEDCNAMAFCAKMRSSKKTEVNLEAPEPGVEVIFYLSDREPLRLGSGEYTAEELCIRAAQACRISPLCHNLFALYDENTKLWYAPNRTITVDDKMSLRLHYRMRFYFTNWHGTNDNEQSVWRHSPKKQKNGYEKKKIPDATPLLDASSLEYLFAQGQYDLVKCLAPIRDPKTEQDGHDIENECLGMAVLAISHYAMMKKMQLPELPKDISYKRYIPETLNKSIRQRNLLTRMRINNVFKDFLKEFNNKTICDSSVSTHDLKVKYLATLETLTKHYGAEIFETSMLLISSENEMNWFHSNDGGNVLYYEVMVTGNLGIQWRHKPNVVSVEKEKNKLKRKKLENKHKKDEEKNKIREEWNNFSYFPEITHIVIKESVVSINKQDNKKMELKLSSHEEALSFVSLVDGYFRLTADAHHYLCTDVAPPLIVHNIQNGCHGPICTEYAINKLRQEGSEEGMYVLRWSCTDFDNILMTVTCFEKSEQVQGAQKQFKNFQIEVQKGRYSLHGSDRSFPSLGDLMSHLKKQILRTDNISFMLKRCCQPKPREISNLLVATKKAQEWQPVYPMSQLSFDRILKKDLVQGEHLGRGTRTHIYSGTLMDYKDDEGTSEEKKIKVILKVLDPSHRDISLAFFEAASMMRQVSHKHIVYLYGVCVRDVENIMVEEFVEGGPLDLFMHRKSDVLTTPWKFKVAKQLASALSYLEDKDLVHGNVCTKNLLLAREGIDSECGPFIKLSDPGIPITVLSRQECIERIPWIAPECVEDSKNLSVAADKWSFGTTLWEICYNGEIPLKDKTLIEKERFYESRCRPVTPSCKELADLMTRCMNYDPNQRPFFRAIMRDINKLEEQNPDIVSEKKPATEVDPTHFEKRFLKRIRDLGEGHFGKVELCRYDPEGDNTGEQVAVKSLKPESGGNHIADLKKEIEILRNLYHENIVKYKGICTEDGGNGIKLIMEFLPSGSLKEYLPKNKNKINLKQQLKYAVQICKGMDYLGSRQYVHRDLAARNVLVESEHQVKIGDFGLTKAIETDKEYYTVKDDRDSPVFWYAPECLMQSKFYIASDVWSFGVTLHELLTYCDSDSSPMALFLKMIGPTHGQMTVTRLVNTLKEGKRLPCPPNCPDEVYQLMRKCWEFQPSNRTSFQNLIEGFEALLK
Experimental: as §1, §2, §3, §4

Tyk2 = Tyk2 (Homo sapiens, UniProt P29597); experiment: Detection of enzyme activity inhibition of JAK kinases (ULight-JAK substrate, Eu-labeled antibody): Tyk2; details: ATP 10 μM, substrate 50 nM, 1 hour reaction at room temperature; read-out: Tyk2 half-maximum inhibitory concentration (IC50)
Tyk2, sequence (P29597 whole entry): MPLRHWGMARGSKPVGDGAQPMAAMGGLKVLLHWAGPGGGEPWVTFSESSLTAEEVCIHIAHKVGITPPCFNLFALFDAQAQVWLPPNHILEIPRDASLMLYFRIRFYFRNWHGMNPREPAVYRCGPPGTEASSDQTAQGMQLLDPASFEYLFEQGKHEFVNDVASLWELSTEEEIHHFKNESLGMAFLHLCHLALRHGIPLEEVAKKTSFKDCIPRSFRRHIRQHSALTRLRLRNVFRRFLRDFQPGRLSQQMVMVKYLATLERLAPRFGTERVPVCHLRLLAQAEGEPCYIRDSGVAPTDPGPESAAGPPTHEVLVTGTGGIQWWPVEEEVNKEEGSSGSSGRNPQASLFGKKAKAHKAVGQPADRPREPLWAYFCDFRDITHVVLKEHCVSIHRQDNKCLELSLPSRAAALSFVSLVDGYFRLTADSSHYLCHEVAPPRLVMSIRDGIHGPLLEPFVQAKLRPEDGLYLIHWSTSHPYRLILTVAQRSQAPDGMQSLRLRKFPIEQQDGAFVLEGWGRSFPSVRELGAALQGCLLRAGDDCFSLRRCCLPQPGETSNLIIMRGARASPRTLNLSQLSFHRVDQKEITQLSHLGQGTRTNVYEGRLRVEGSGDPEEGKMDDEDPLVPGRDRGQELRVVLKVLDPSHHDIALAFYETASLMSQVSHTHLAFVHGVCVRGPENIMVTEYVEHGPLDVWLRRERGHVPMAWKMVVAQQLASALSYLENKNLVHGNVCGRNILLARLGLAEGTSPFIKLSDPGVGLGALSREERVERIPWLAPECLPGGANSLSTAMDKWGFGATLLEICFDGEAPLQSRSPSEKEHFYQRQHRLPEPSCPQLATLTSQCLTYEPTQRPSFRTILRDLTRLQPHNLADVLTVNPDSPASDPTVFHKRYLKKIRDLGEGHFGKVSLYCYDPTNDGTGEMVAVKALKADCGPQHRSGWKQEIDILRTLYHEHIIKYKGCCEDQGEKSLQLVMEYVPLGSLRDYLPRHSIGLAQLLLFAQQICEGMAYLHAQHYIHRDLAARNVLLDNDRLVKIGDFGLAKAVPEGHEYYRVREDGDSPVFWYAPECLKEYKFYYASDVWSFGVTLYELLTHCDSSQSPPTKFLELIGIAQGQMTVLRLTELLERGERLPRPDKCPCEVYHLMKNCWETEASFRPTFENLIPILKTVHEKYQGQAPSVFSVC
Experimental: as §1, §2, §3, §4

Row | SMILES | IC50 (JAK3) [nM] | IC50 (JAK2) [nM] | IC50 (JAK1) [nM] | IC50 (Tyk2) [nM]
1 | CCNC(=O)c1ccc(Nc2nccc(-c3ccc(NC(=O)[C@@H]4CC4(F)F)nc3)n2)cc1 [TDM-180971, (S)-4((4-(6-(2,2-difluorocyclopropane-1-formamido)pyridin-3-yl)pyrimidin-2-yl)amino)-N-ethyl benzamide] | 219 | 7 | 6 | 5
2 | CCNC(=O)c1ccc(Nc2nccc(-c3ccc(NC(=O)[C@@H]4CC4(F)F)cc3)n2)cc1 [TDM-180972] | 117 | 3 | 4 | 5
3 | Cc1cc(Nc2nccc(-c3ccc(NC(=O)[C@@H]4CC4(F)F)cc3)n2)cnc1C(N)=O [TDM-180974] | 346 | 7 | 7 | 8
4 | Cc1cc(Nc2nccc(-c3ccc(NC(=O)[C@@H]4CC4(F)F)nc3)n2)cnc1C(N)=O [TDM-180980, (S)-5-((4-(6-(2,2-difluorocyclopropane-1-carboxamido)pyridin-3-yl)pyrimidin-2-yl)amino)-3-methyl pyridinolineamide] | > 5000 | 30 | 28 | 18
5 | CNC(=O)c1ncc(Nc2nccc(-c3ccc(NC(=O)[C@@H]4CC4(F)F)cc3)n2)cc1C [TDM-180981] | 183 | 8 | 8 | 8
6 | CCNC(=O)c1ccc(Nc2nccc(-c3ccc(NC(=O)[C@@H]4CC4(F)F)nc3)n2)cc1C [TDM-180984, (S)-4-((4-(6-(2,2-difluorocyclopropane-1-carboxamido)pyridin-3-yl)pyrimidin-2-yl)amino)-N-ethyl-2-methylbenzamide] | 105 | 9 | 8 | 5

More lines, in order of falling IC50 (JAK3), values ahead:

Row | IC50 (JAK3) [nM] | IC50 (JAK2) [nM] | IC50 (JAK1) [nM] | IC50 (Tyk2) [nM] | SMILES
7 | 931 | 33 | 25 | 17 | CNC(=O)c1ncc(Nc2nccc(-c3ccc(NC(=O)[C@@H]4CC4(F)F)nc3)n2)cc1C [TDM-180979, (S)-5((4-(6-(2,2-difluorocyclopropane-1-carboxamido)pyridin-3-yl)pyrimidin-2-yl)amino)-N,3-dimethylpyridinolineamide]
8 | 310 | 22 | 25 | 17 | CC(CO)c1ccc(Nc2nccc(-c3ccc(NC(=O)[C@@H]4CC4(F)F)nc3)n2)cn1 (stereo partly shown) [TDM-180987]
9 | 177 | 13 | 11 | 14 | CC(CO)c1ccc(Nc2nccc(-c3ccc(NC(=O)[C@@H]4CC4(F)F)cc3)n2)cn1 (stereo partly shown) [TDM-180989]
10 | 57 |  |  |  | CCNC(=O)c1ccc(Nc2nccc(-c3ccc(NC(=O)[C@@H]4CC4(F)F)cc3)n2)cc1C [TDM-180977, (S)-4-(4-(4-(4-(2,2-difluorocyclopropane-1-carboxamido)phenyl)pyrimidin-2-yl)amino)-N-ethyl-2-methylbenzamide]
